Drawing on patent US20100317607A1, “USE OF COMPOUNDS FOR PREPARING ANTI-TUBERCULOSIS AGENTS” (INFECTIOUS DISEASE RESEARCH INSTITUTE, priority 2007, published 2010), this text covers MIC for 42 compounds.

Each structure is given as a SMILES string. In brackets after ≈: the same amount, converted by molar mass. Where a name gives a salt, the structure may show the parent alone. Some results are limits rather than exact numbers.

The test has as its system H37Rv strain of M. tuberculosis. Briefly: Alamar Blue Susceptibility Test (MABA). In kind it is cell-based. The conditions noted are these: Mycobacterium tuberculosis; H37Rv strain of M. tuberculosis; Alamar Blue; read-out: MABA (TB growth inhibition, colourimetric assay).

On to `OC[C@H](Cc1ccccc1)Nc1nc(N2CCCCC2)nc2ccccc12` [Compound 143, (S)-3-Phenyl-2-(2-(piperidin-1-yl)quinazolin-4-ylamino)propan-1-ol hydrochloride], for which the MIC lay in the range of 10 to 50 µM.

As to `COC[C@H](Cc1ccccc1)Nc1nc(N2CCCCC2)nc2ccccc12` [Compound 144, (S)—N-(1-Methoxy-3-phenylpropan-2-yl)-2-(piperidin-1-yl)quinazolin-4-amine], the MIC lay in the range of 10 to 50 µM (≈ 3.77 to 18.8 µg/mL).

In the case of `OC[C@H](Nc1nc(N2CCCCC2)nc2ccccc12)c1ccccc1` [Compound 145, (R)-2-Phenyl-2-(2-(piperidin-1-yl)quinazolin-4-ylamino)ethanol hydrochloride], the MIC lay within 50 to 128 µM.

As to `FC1(F)CCN(c2nc(NCc3ccc(Cl)cc3)nc3ccccc23)CC1` [Compound 146, N-(4-Chlorobenzyl)-4-(4,4-difluoropiperidin-1-yl)quinazolin-2-amine hydrochloride], the MIC lay in the range of 10 to 50 µM.

As to `FC1(F)CCN(c2nc(NCc3ccc(C(F)(F)F)cc3)nc3ccccc23)CC1` [Compound 147, 4-(4,4-Difluoropiperidin-1-yl)-N-(4-(trifluoromethyl)benzyl)quinazolin-2-amine], the MIC is below 10 µM.

As to `Fc1ccc(CNc2nc(N3CCC(F)(F)CC3)c3ccccc3n2)c(F)c1` [Compound 148, N-(2,4-Difluorobenzyl)-4-(4,4-difluoropiperidin-1-yl)quinazolin-2-amine], the MIC fell in the range of 10 to 50 µM (≈ 3.9 to 19.5 µg/mL).

Take `Fc1ccc(CNc2nc(N3CCC(F)(F)CC3)c3ccccc3n2)cc1` [Compound 149, 4-(4,4-Difluoropiperidin-1-yl)-N-(4-fluorobenzyl)quinazolin-2-amine hydrochloride]: the MIC lay within 10 to 50 µM.

`COc1cc2nc(N3CCCCC3)nc(NCc3ccc(F)cc3)c2cc1OC` [Compound 150, N-(4-Fluorobenzyl)-6,7-dimethoxy-2-(piperidin-1-yl)quinazolin-4-amine hydrochloride]: the MIC is 10 to 50 µM.

Consider `COc1cc2nc(N3CCC(F)(F)CC3)nc(NCc3ccc(F)cc3)c2cc1OC` [Compound 151, 2-(4,4-Difluoropiperidin-1-yl)-N-(4-fluorobenzyl)-6,7-dimethoxyquinazolin-4-amine hydrochloride], for which the MIC lay within 10 to 50 µM.

On to `Fc1ccc(C2(Nc3nc(N4CCCCC4)nc4ccccc34)CC2)cc1` [Compound 152, N-(1-(4-Fluorophenyl)cyclopropyl)-2-(piperidin-1-yl)quinazolin-4-amine], for which the MIC is 10 to 50 µM (≈ 3.62 to 18.1 µg/mL).

As to `Fc1ccc(C2(Nc3nc(N4CCC(F)(F)CC4)nc4ccccc34)CC2)cc1` [Compound 153, 2-(4,4-Difluoropiperidin-1-yl)-N-(1-(4-fluorophenyl)cyclopropyl)quinazolin-4-amine], the MIC is 50 to 128 µM (≈ 19.9 to 51 µg/mL).

Consider `Fc1ccc(CNc2nc(NC3(c4ccc(F)cc4)CC3)c3ccccc3n2)cc1` [Compound 154, N^2-(4-Fluorobenzyl)-N^4-(1-(4-fluorophenyl)cyclopropyl)quinazoline-2,4-diamine], for which the MIC is below 10 µM.

`Fc1ccc(CNc2nc(N3CCCCC3)nc3cc(F)ccc23)cc1` [Compound 155, 7-Fluoro-N-(4-fluorobenzyl)-2-(piperidin-1-yl)quinazolin-4-amine]: the MIC is below 10 µM.

Take `Fc1ccc(CNc2nc(N3CCC(F)(F)CC3)nc3cc(F)ccc23)cc1` [Compound 156, 2-(4,4-Difluoropiperidin-1-yl)-7-fluoro-N-(4-fluorobenzyl)quinazolin-4-amine]: the MIC lay within 10 to 50 µM (≈ 3.9 to 19.5 µg/mL).

`Fc1ccc(CNc2nc(NCc3ccc(F)cc3)c3ccc(F)cc3n2)cc1` [Compound 157, 7-Fluoro-N^2, N^4-bis(4-fluorobenzyl)quinazoline-2,4-diamine]: the MIC is below 10 µM.

For the compound `Cc1ccc(CNc2nc(NCc3ccc(F)cc3)nc3ccccc23)o1` [Compound 158, N^2-(4-Fluorobenzyl)-N^4-((5-methylfuran-2-yl)methyl)quinazoline-2,4-diamine hydrochloride], the MIC was in the range of 10 to 50 µM.

Regarding `Fc1ccc(CNc2nc(NCc3ccc(C(F)(F)F)o3)c3ccccc3n2)cc1` [Compound 159, N^2-(4-Fluorobenzyl)-N4-((5-(trifluoromethyl)furan-2-yl)methyl)quinazoline-2,4-diamine hydrochloride], the MIC is below 10 µM.

`FC(F)(F)c1ccc(CNc2nc(N3CCCCC3)nc3ccccc23)o1` [Compound 160, 2-(Piperidin-1-yl)-N-((5-(trifluoromethyl)furan-2-yl)methyl)quinazolin-4-amine hydrochloride]: the MIC is below 10 µM.

For `FC1(F)CCN(c2nc(NCc3ccc(C(F)(F)F)o3)c3ccccc3n2)CC1` [Compound 161, 2-(4,4-Difluoropiperidin-1-yl)-N-((5-(trifluoromethyl)furan-2-yl)methyl)quinazolin-4-amine hydrochloride], the MIC lay in the range of 10 to 50 µM.

`FC(F)(F)Oc1ccc(CNc2nc(N3CCCCC3)nc3ccccc23)cc1` [Compound 162, 2-(Piperidin-1-yl)-N-(4-(trifluoromethoxy)benzyl)quinazolin-4-amine]: the MIC was below 10 µM.

With `FC1(F)CCN(c2nc(NCc3ccc(OC(F)(F)F)cc3)c3ccccc3n2)CC1` [Compound 163, 2-(4,4-Difluoropiperidin-1-yl)-N-(4-(trifluoromethoxy)benzyl)quinazolin-4-amine], the MIC is 10 to 50 µM (≈ 4.38 to 21.9 µg/mL).

For `Oc1ccc(CNc2nc(N3CCCCC3)nc3ccccc23)cc1` [Compound 164, 4-((2-(Piperidin-1-yl)quinazolin-4-ylamino)methyl)phenol], the MIC was 10 to 50 µM (≈ 3.34 to 16.7 µg/mL).

Consider `Oc1ccc(CNc2nc(NCc3ccc(F)cc3)nc3ccccc23)cc1` [Compound 165, 4-((2-(4-Fluorobenzylamino)quinazolin-4-ylamino)methyl)phenol], for which the MIC fell in the range of 10 to 50 µM (≈ 3.74 to 18.7 µg/mL).

For `Fc1ccc(CNc2nc(NCc3ccc(F)cc3)c3sccc3n2)cc1` [Compound 166, N^2,N^4-bis(4-Fluorobenzyl)thieno[3,2-d]pyrimidine-2,4-diamine], the MIC lay in the range of 10 to 50 µM (≈ 3.82 to 19.1 µg/mL).

With `Cc1ccc(CNc2nc(N3CCCCC3)nc3ccccc23)o1` [Compound 167, N-((5-Methylfuran-2-yl)methyl)-2-(piperidin-1-yl)quinazolin-4-amine], the MIC was below 10 µM.

Turning to `COc1cc2nc(NCc3ccc(F)cc3)nc(NCc3ccc(F)cc3)c2cc1OC` [Compound 168, N^2,N^4-bis(4-Fluorobenzyl)-6,7-dimethoxyquinazoline-2,4-diamine], the MIC was 10 to 50 µM (≈ 4.36 to 21.8 µg/mL).

`Fc1ccc(CNc2nc(N3CCOCC3)nc3ccccc23)cc1` [Compound 169, N-(4-Fluorobenzyl)-2-morpholinoquinazolin-4-amine]: the MIC was in the range of 10 to 50 µM (≈ 3.38 to 16.9 µg/mL).

Consider `Cc1ccc(CNc2nc(NCc3ccc(F)cc3)c3ccccc3n2)o1` [Compound 170, N^4-(4-Fluorobenzyl)-N^2-((5-methylfuran-2-yl)methyl)quinazoline-2,4-diamine], for which the MIC fell in the range of 10 to 50 µM (≈ 3.62 to 18.1 µg/mL).

Regarding `Fc1ccc(CNc2nc(NCc3cc4ccccc4s3)nc3ccccc23)cc1` [Compound 171, N^2-(Benzo[b]thiophen-2-ylmethyl)-N^4-(4-fluorobenzyl)quinazoline-2,4-diamine], the MIC was in the range of 10 to 50 µM (≈ 4.15 to 20.7 µg/mL).

On to `Fc1ccc(CNc2nc(N3CCCC3)nc3ccccc23)cc1` [Compound 172, N-(4-Fluorobenzyl)-2-(pyrrolidin-1-yl)quinazolin-4-amine], for which the MIC was below 10 µM.

Take `Fc1ccc(CNc2nc(N3CCCC3)nc3ncccc23)cc1` [Compound 173, N-(4-Fluorobenzyl)-2-(pyrrolidin-1-yl)pyrido[2,3-d]pyrimidin-4-amine]: the MIC lay in the range of 10 to 50 µM (≈ 3.23 to 16.2 µg/mL).

On to `Fc1ccc(CNc2nc(N3CCCCC3)nc3ncccc23)cc1` [Compound 174, N-(4-Fluorobenzyl)-2-(piperidin-1-yl)pyrido[2,3-d]pyrimidin-4-amine], for which the MIC lay in the range of 10 to 50 µM (≈ 3.37 to 16.9 µg/mL).

As to `COC(=O)[C@@H](Nc1nc(N2CCCCC2)nc2ccccc12)c1ccccc1` [Compound 175, (S)-Methyl 2-phenyl-2-(2-(piperidin-1-yl)quinazolin-4-ylamino)acetate], the MIC fell in the range of 10 to 50 µM (≈ 3.76 to 18.8 µg/mL).

`COC(=O)[C@H](Cc1ccccc1)Nc1nc(N2CCCCC2)nc2ccccc12` [Compound 176, (S)-Methyl 3-phenyl-2-(2-(piperidin-1-yl)quinazolin-4-ylamino)propanoate]: the MIC lay within 50 to 128 µM (≈ 19.5 to 50 µg/mL).

For the compound `OC[C@@H]1CCCN1c1nc(NCc2ccccc2)c2ccccc2n1` [Compound 177, (S)-(1-(4-(Benzylamino)quinazolin-2-yl)pyrrolidin-2-yl)methanol], the MIC was 50 to 128 µM (≈ 16.7 to 42.8 µg/mL).

With `COC[C@@H]1CCCN1c1nc(NCc2ccccc2)c2ccccc2n1` [Compound 178, (S)—N-Benzyl-2-(2-(methoxymethyl)pyrrolidin-1-yl)quinazolin-4-amine], the MIC was in the range of 50 to 128 µM (≈ 17.4 to 44.6 µg/mL).

For `Fc1ccc(CNc2nc(N3Cc4ccccc4C3)nc3ccccc23)cc1` [Compound 179, N-(4-Fluorobenzyl)-2-(isoindolin-2-yl)quinazolin-4-amine hydrochloride], the MIC was below 10 µM.

For the compound `COC(=O)[C@@H]1CCCN1c1nc(NCc2ccccc2)c2ccccc2n1` [Compound 180, (S)-Methyl 1-(4-(benzylamino)quinazolin-2-yl)pyrrolidine-2-carboxylate], the MIC lay in the range of 50 to 128 µM (≈ 18.1 to 46.4 µg/mL).

As for `COc1cc2c(cc1OC)CN(c1nc(NCc3ccccc3)c3ccccc3n1)CC2` [Compound 181, N-Benzyl-2-(6,7-dimethoxy-3,4-dihydroisoquinolin-2(1H)-yl)quinazolin-4-amine], the MIC lay within 10 to 50 µM (≈ 4.27 to 21.3 µg/mL).

As to `Fc1ccc(CNc2nc(N3CCCC3)nc3cccc(Cl)c23)cc1` [Compound 182, 5-Chloro-N-(4-fluorobenzyl)-2-(pyrrolidin-1-yl)quinazolin-4-amine], the MIC fell in the range of 10 to 50 µM (≈ 3.57 to 17.8 µg/mL).

Take `Fc1ccc(CNc2nc(N3CCCCC3)nc3cccc(Cl)c23)cc1` [Compound 183, 5-Chloro-N-(4-fluorobenzyl)-2-(piperidin-1-yl)quinazolin-4-amine]: the MIC was in the range of 10 to 50 µM (≈ 3.71 to 18.5 µg/mL).

For `CC(C)(C)OC(=O)N1CCc2c(nc(N3CCCCC3)nc2NCc2ccc(F)cc2)C1` [Compound 184, tert-Butyl 4-(4-fluorobenzylamino)-2-(piperidin-1-yl)-5,6-dihydropyrido[3,4-d]pyrimidine-7(8H)-carboxylate], the MIC lay within 50 to 128 µM (≈ 22.1 to 56.5 µg/mL).
